Columns and labels:
[1] = system: bicistronic HCV replicon (replicon RNA, GenBank Accession No. AJ242654); assay: HCV Replicon Assay; type: cell-based; details: Hepatitis C virus, 72 h, read-out: Replicon IC50

SMILES | IC50 [1] [nM] | melting point [°C]
Cc1cc2c(cc1O)c(C(N)=O)c(-c1ccc(S(=O)(=O)N[C@@H](C)C(F)(F)F)cn1)n2C1CCC1 [compound 833, 1-cyclobutyl-5-hydroxy-6-methyl-2-(5-{[(2S)-1,1,1-trifluoropropan-2-yl]sulfamoyl}pyridin-2-yl)-1H-indole-3-carboxamide] | 500 to 2000 | 256 to 258
C[C@H](NS(=O)(=O)c1cnc(-c2c(C#N)c3cc(F)ccc3n2CC2CC2)nc1)C(F)(F)F [compound 548, 2-[3-cyano-1-(cyclopropylmethyl)-5-fluoro-1H-indol-2-yl]-N-[(2S)-1,1,1-trifluoropropan-2-yl]pyrimidine-5-sulfonamide] | 500 to 2000 | 175 to 180
CCc1cc2c(cc1F)c(C#N)c(-c1ccc(S(=O)(=O)N[C@@H](C)C(F)(F)F)cn1)n2-c1cccc(OC)c1 [compound 1010, 6-[3-cyano-6-ethyl-5-fluoro-1-(3-methoxyphenyl)-1H-indol-2-yl]-N-[(2S)-1,1,1-trifluoropropan-2-yl]pyridine-3-sulfonamide] | < 500 | 229 to 233
C[C@H](NS(=O)(=O)c1ccc(-c2c(C#N)c3cc(F)ccc3n2-c2ccccn2)nc1)C(F)(F)F [compound 386, 6-[3-cyano-5-fluoro-1-(pyridin-2-yl)-1H-indol-2-yl]-N-[(2S)-1,1,1-trifluoropropan-2-yl]pyridine-3-sulfonamide] | < 500 | 210 to 212
CCc1cc(F)c2c(C(N)=O)c(-c3ccc(NS(=O)(=O)C(C)(C)C)nc3)n(-c3ccc(F)cc3)c2c1 [compound 1106, 2-{6-[(tert-butylsulfonyl)amino]pyridin-3-yl}-6-ethyl-4-fluoro-1-(4-fluorophenyl)-1H-indole-3-carboxamide] | < 500 | 280 to 288
Cc1ccc2c(C#N)c(-c3ccc(S(=O)(=O)NC(CF)CF)cn3)n([C@@H]3CCOC3)c2c1 [compound 54, 6-{3-cyano-6-methyl-1-[(3R)-tetrahydrofuran-3-yl]-1H-indol-2-yl}-N-(1,3-difluoropropan-2-yl)pyridine-3-sulfonamide] | < 500 | 152 to 153
Cc1cc2c(cc1F)c(C(N)=O)c(-c1ccc(S(=O)(=O)NC3(C(F)(F)F)CC3)cn1)n2C1CCCC1 [compound 730, 1-cyclopentyl-5-fluoro-6-methyl-2-(5-{[1-(trifluoromethyl)cyclopropyl]sulfamoyl}pyridin-2-yl)-1H-indole-3-carboxamide] | < 500 | 220 to 221
Cc1ccc2c(c1)c(C#N)c(-c1ncc(S(=O)(=O)N[C@@H](C)C(F)(F)F)cn1)n2C1CCC1 [compound 414, 2-(3-cyano-1-cyclobutyl-5-methyl-1H-indol-2-yl)-N-[(2S)-1,1,1-trifluoropropan-2-yl]pyrimidine-5-sulfonamide] | < 500 | 190 to 195
CC(=O)c1ccc(-n2c(-c3ccc(S(=O)(=O)N[C@@H](C)C(F)(F)F)cn3)c(C#N)c3cc(F)c(C)cc32)s1 [compound 1035, 6-[1-(5-acetylthiophen-2-yl)-3-cyano-5-fluoro-6-methyl-1H-indol-2-yl]-N-[(2S)-1,1,1-trifluoropropan-2-yl]pyridine-3-sulfonamide] | 500 to 2000 | 235.6 to 238.7
CCc1cc2c(cc1F)c(C#N)c(-c1ccc(S(=O)(=O)N[C@@H](C)C(F)(F)F)cn1)n2-c1ccncc1 [compound 974, 6-[3-cyano-6-ethyl-5-fluoro-1-(pyridin-4-yl)-1H-indol-2-yl]-N-[(2S)-1,1,1-trifluoropropan-2-yl]pyridine-3-sulfonamide] | < 500 | 209 to 215
Cc1ccc2c(C#N)c(-c3ccc(S(=O)(=O)NC4CC(F)(F)C4)cn3)n(C3CCC3)c2c1 [compound 245, 6-(3-cyano-1-cyclobutyl-6-methyl-1H-indol-2-yl)-N-(3,3-difluorocyclobutyl)pyridine-3-sulfonamide] | < 500 | 165 to 166
CC(C)n1c(-c2ccc(S(=O)(=O)NC(CF)CF)cn2)c(C#N)c2ccc(OC(F)(F)F)cc21 [compound 69, 6-[3-cyano-1-(propan-2-yl)-6-(trifluoromethoxy)-1H-indol-2-yl]-N-(1,3-difluoropropan-2-yl)pyridine-3-sulfonamide] | < 500 | 116 to 117
Cc1ccc2c(C#N)c(-c3ncc(S(=O)(=O)N[C@H](C)C(F)(F)F)cn3)n(C3CCCC3)c2c1 [compound 182, 2-(3-cyano-1-cyclopentyl-6-methyl-1H-indol-2-yl)-N-[(2R)-1,1,1-trifluoropropan-2-yl]pyrimidine-5-sulfonamide] | < 500 | 116 to 118
Cc1ccc2c(C#N)c(-c3ccc(S(=O)(=O)NC(C)C)cn3)n([C@@H]3CCOC3)c2c1 [compound 55, 6-{3-cyano-6-methyl-1-[(3R)-tetrahydrofuran-3-yl]-1H-indol-2-yl}-N-(propan-2-yl)pyridine-3-sulfonamide] | < 500 | 164 to 167
Cc1ccc2c(c1)c(C#N)c(-c1ccc(S(=O)(=O)N[C@@H](C)C(F)(F)F)cn1)n2-c1cnccn1 [compound 845, 6-[3-cyano-5-methyl-1-(pyrazin-2-yl)-1H-indol-2-yl]-N-[(2S)-1,1,1-trifluoropropan-2-yl]pyridine-3-sulfonamide] | < 500 | 236 to 241
CCc1ccc2c(C#N)c(-c3ccc(S(=O)(=O)N[C@@H](C)C(F)(F)F)cn3)n(C3CCC3)c2c1 [compound 338, 6-(3-cyano-1-cyclobutyl-6-ethyl-1H-indol-2-yl)-N-[(2S)-1,1,1-trifluoropropan-2-yl]pyridine-3-sulfonamide] | < 500 | 198 to 199
CC(C)NS(=O)(=O)c1cnc(-c2c(C#N)c3ccc(CC(F)F)cc3n2C2CCCC2)nc1 [compound 598, 2-[3-cyano-1-cyclopentyl-6-(2,2-difluoroethyl)-1H-indol-2-yl]-N-(propan-2-yl)pyrimidine-5-sulfonamide] | < 500 | 204 to 218
CC(C)NS(=O)(=O)c1cnc(-c2c(C#N)c3ccc(C4CC4)cc3n2C2CCCC2)nc1 [compound 125, 2-(3-cyano-1-cyclopentyl-6-cyclopropyl-1H-indol-2-yl)-N-(propan-2-yl)pyrimidine-5-sulfonamide] | < 500 | 211 to 212
NC(=O)c1c(-c2ccc(S(=O)(=O)NC3(C(F)(F)F)CC3)cn2)n(C2CCC2)c2cc(OC(F)F)c(F)cc12 [compound 809, 1-cyclobutyl-6-(difluoromethoxy)-5-fluoro-2-(5-{[1-(trifluoromethyl)cyclopropyl]sulfamoyl}pyridin-2-yl)-1H-indole-3-carboxamide] | < 500 | 197 to 200
CCc1cc2c(cc1F)c(C#N)c(-c1ccc(S(=O)(=O)N[C@@H](C)C(F)(F)F)cn1)n2-c1ncc(C)cn1 [compound 976, 6-[3-cyano-6-ethyl-5-fluoro-1-(5-methylpyrimidin-2-yl)-1H-indol-2-yl]-N-[(2S)-1,1,1-trifluoropropan-2-yl]pyridine-3-sulfonamide] | < 500 | 201 to 206
Cc1ccc2c(C#N)c(-c3ccc(S(=O)(=O)NC(CF)CF)cn3)n(CC3CC3)c2c1 [compound 81, 6-[3-cyano-1-(cyclopropylmethyl)-6-methyl-1H-indol-2-yl]-N-(1,3-difluoropropan-2-yl)pyridine-3-sulfonamide] | < 500 | 175 to 182
N#Cc1c(-c2ncc(S(=O)(=O)NC(CF)CF)cn2)n(C2CCC2)c2ccc(Cl)cc12 [compound 175, 2-(5-chloro-3-cyano-1-cyclobutyl-1H-indol-2-yl)-N-(1,3-difluoropropan-2-yl)pyrimidine-5-sulfonamide] | < 500 | 210 to 212
C[C@H](NS(=O)(=O)c1cnc(-c2c(C#N)c3cc(F)ccc3n2CC2CC2)nc1)C1CC1 [compound 531, 2-[3-cyano-1-(cyclopropylmethyl)-5-fluoro-1H-indol-2-yl]-N-[(1S)-1-cyclopropylethyl]pyrimidine-5-sulfonamide] | < 500 | 184 to 188
Cc1cc2c(cc1F)c(C#N)c(-c1ccc(S(=O)(=O)N[C@@H](C)C(F)(F)F)cn1)n2-c1ccccn1 [compound 541, 6-[3-cyano-5-fluoro-6-methyl-1-(pyridin-2-yl)-1H-indol-2-yl]-N-[(2S)-1,1,1-trifluoropropan-2-yl]pyridine-3-sulfonamide] | < 500 | 160 to 164
N#Cc1c(-c2ccc(S(=O)(=O)NC(CF)CF)cn2)n(C2CCCC2)c2cc(Cl)ccc12 [compound 64, 6-(6-chloro-3-cyano-1-cyclopentyl-1H-indol-2-yl)-N-(1,3-difluoropropan-2-yl)pyridine-3-sulfonamide] | < 500 | 236 to 240
CC[C@H](NS(=O)(=O)c1ccc(-c2c(C#N)c3cc(F)c(C)cc3n2C2CCCC2)nc1)C(F)(F)F [compound 821, 6-(3-cyano-1-cyclopentyl-5-fluoro-6-methyl-1H-indol-2-yl)-N-[(2S)-1,1,1-trifluorobutan-2-yl]pyridine-3-sulfonamide] | < 500 | 201 to 207
Cc1cc2c(C#N)c(-c3ccc(S(=O)(=O)N[C@@H](C)C(F)(F)F)cn3)n(C3CCC3)c2cc1OC(F)F [compound 660, 6-[3-cyano-1-cyclobutyl-6-(difluoromethoxy)-5-methyl-1H-indol-2-yl]-N-[(2S)-1,1,1-trifluoropropan-2-yl]pyridine-3-sulfonamide] | < 500 | 168 to 170
Cc1ccc2c(c1)c(C#N)c(-c1ccc(S(=O)(=O)N[C@@H](C)C(F)(F)F)cn1)n2-c1ccccn1 [compound 503, 6-[3-cyano-5-methyl-1-(pyridin-2-yl)-1H-indol-2-yl]-N-[(2S)-1,1,1-trifluoropropan-2-yl]pyridine-3-sulfonamide] | 500 to 2000 | 165 to 167

Source: patent US8735414B2 (priority 2009, dated 2014)
